Structures can show the parent of a compound that is named as a salt. Non-standard residues stand in square brackets, D forms with d. Residues, ends and D or L forms follow the SMILES beside them. Orn = NCCC[C@H](N)C(=O)O
Assay: in vitro
Settings: rat, gh3-tre-luc cells

| Structure (SMILES) | CC50 at 24 h (AC50 (uM) modified / 1000) | also measured |
| --- | --- | --- |
| CC(C)C[C@H](NC(=O)[C@@H](COC(C)(C)C)NC(=O)[C@H](Cc1ccc(O)cc1)NC(=O)[C@H](CO)NC(=O)[C@H](Cc1c[nH]c2ccccc12)NC(=O)[C@H](Cc1cnc[nH]1)NC(=O)[C@@H]1CCC(=O)N1)C(=O)N[C@@H](CCCNC(=N)N)C(=O)N1CCC[C@H]1C(=O)NNC(N)=O [Goserelin acetate] | > 50 µM | – |
| Cc1cc2c(C(C)C)c(O)c(O)c(C=O)c2c(O)c1-c1c(C)cc2c(C(C)C)c(O)c(O)c(C=O)c2c1O [Gossypol] | 8.84 µM | – |
| CC(C)C[C@@H]1NC(=O)[C@H](CCCN)NC(=O)[C@H](C(C)C)NC(=O)[C@@H]2CCCN2C(=O)[C@@H](Cc2ccccc2)NC(=O)[C@H](CC(C)C)NC(=O)[C@H](CCCN)NC(=O)[C@H](C(C)C)NC(=O)[C@@H]2CCCN2C(=O)[C@@H](Cc2ccccc2)NC1=O [Gramicidin S] (cyclo(L[dF]PV[Orn]L[dF]PV[Orn])) | 3.05 µM | – |
| CN1[C@@H]2CCC[C@H]1C[C@@H](NC(=O)c1nn(C)c3ccccc13)C2 [Granisetron hydrochloride] | > 50 µM | – |
| Cc1c(F)c(N2CCNC(C)C2)cc2c1c(=O)c(C(=O)O)cn2C1CC1 (stereo not drawn) [Grepafloxacin hydrochloride] | > 50 µM | – |
| COc1ccccc1OC(=O)Oc1ccccc1OC [Guaiacol carbonate] | > 50 µM | – |
| CCN(CC)CCOc1ccccc1OC [Guaiactamine] | > 50 µM | – |
| Cc1ccc(C(C)C)cc2c(C)ccc1-2 [Guaiazulene] | > 50 µM | – |
| N=C(N)N/N=C/c1c(Cl)cccc1Cl [Guanabenz] | 20.8 µM | – |
| N=C(N)NCC1COC2(CCCCC2)O1 (stereo not drawn) [Guanadrel sulfate] | > 20 µM | – |
| Nc1n[nH]c(N)n1 [Guanazole] | > 90 µM | – |
| N=C(N)NC(=O)Cc1c(Cl)cccc1Cl [Guanfacine hydrochloride] | 31.7 µM | – |
| N=C(N)N [Guanidine carbonate] | > 50 µM | – |
| N=C(N)NCC1COc2ccccc2O1 (stereo not drawn) [Guanoxan] | > 50 µM | – |
| C/C=C1/C(=O)C[C@H]2[C@@H]3CCC4=CC(=O)CC[C@]4(C)[C@H]3CC[C@]12C [Guggulsterone E] | > 90 µM | – |
| C/C=C1\C(=O)C[C@H]2[C@@H]3CCC4=CC(=O)CC[C@]4(C)[C@H]3CC[C@]12C [Guggulsterone Z] | > 50 µM | – |
| N=C(N)NCCCCCCC(=O)NC(O)C(=O)NCCCCNCCCN (stereo not drawn) [Gusperimus trihydrochloride] | > 50 µM | – |
| Nc1ccc(NCCO)c([N+](=O)[O-])c1 [HC Red 3] | 52.7 µM | – |
| O=[N+]([O-])c1ccc(NCCO)c(OCCO)c1 [HC Yellow 4] | 58.6 µM | – |
| OC12N=C(c3ccccc3)SC1Cc1cc(Cl)ccc12 (stereo not drawn) [HMR1426] | 56.9 µM | – |
| O=C(O)c1ccc(S(=O)(=O)N(Cl)Cl)cc1 [Halazone] | > 90 µM | – |

| Structure (SMILES) | CC50 at 24 h (AC50 (uM) modified / 1000) | also measured |
| --- | --- | --- |
| CC1(C)O[C@@H]2C[C@H]3[C@@H]4CCC5=CC(=O)CC[C@]5(C)[C@@]4(F)[C@@H](O)C[C@]3(C)[C@]2(C(=O)CCl)O1 [Halcinonide] | > 20 µM | – |
| CCN(CC)CCOc1ccc(-c2nc3cc(Cl)ccc3s2)cc1 [Halethazole hydrochloride] | 8.14 µM | – |
| CCC(=O)O[C@]1(C(=O)CCl)[C@@H](C)C[C@H]2[C@@H]3C[C@H](F)C4=CC(=O)C=C[C@]4(C)[C@@]3(F)[C@@H](O)C[C@@]21C [Halobetasol propionate] | > 50 µM | – |
| CCCCN(CCCC)CCC(O)c1cc2c(Cl)cc(Cl)cc2c2cc(C(F)(F)F)ccc12 (stereo not drawn) [Halofantrine hydrochloride] | > 20 µM | – |
| CC(C)(C)N(NC(=O)c1ccc(Cl)cc1)C(=O)c1ccccc1 [Halofenozide] | 4.99 µM | – |
| C[C@@H]1C[C@H]2[C@@H]3C[C@H](F)C4=CC(=O)C(Cl)=C[C@]4(C)[C@@]3(F)[C@@H](O)C[C@]2(C)[C@@]1(O)C(=O)CO [Halometasone hydrate] | > 50 µM | – |
| Clc1cc(Cl)c(OCC#CI)cc1Cl [Haloprogin] | 11.9 µM | – |
| FC(F)(F)C(Cl)Br (stereo not drawn) [Halothane] | > 90 µM | – |
| Cc1c(Cl)c(=O)oc2cc(OP(=O)(OCCCl)OCCCl)ccc12 [Haloxon] | – | CC50 at 24 h (AC50 (uM) modified / 1000, Tox21_110001=Tox21_111889, viability, 1 nM T3 present, 24 h): > 50 µM |
| COC(=O)C(C)Oc1ccc(Oc2ncc(C(F)(F)F)cc2Cl)cc1 (stereo not drawn) [Haloxyfop-methyl] | > 90 µM | – |
| CC(Oc1ccc(Oc2ncc(C(F)(F)F)cc2Cl)cc1)C(=O)O (stereo not drawn) [Haloxyfop] | > 90 µM | – |
| Oc1cc2c(cc1O)[C@@H]1c3ccc(O)c(O)c3OC[C@]1(O)C2 [Hematoxylin] | 69.9 µM | – |
| ClC1=C(Cl)[C@]2(Cl)[C@@H]3[C@@H](Cl)[C@H]4O[C@H]4[C@@H]3[C@@]1(Cl)C2(Cl)Cl [Heptachlor epoxide] | – | CC50 at 24 h (AC50 (uM) modified / 1000, Tox21_110001=Tox21_300621, viability, 1 nM T3 present, 24 h): 48.8 µM |
| ClC1=C(Cl)C2(Cl)C3C(Cl)C=CC3C1(Cl)C2(Cl)Cl (stereo not drawn) [Heptachlor] | – | CC50 at 24 h (AC50 (uM) modified / 1000, Tox21_110001=Tox21_201911, viability, 1 nM T3 present, 24 h): 37.8 µM; CC50 at 24 h (AC50 (uM) modified / 1000, Tox21_110001=Tox21_300534, viability, 1 nM T3 present, 24 h): 42.6 µM |
| CCCCCCCCCCCCCCCCC [Heptadecane] | > 90 µM | – |
| C1CCCNCCC1 [Heptamethyleneimine] | > 90 µM | – |
| CC(N)CCCC(C)(C)O (stereo not drawn) [Heptaminol hydrochloride] | > 50 µM | – |
| CCCCCCC=O [Heptanal] | > 90 µM | – |
| CCCCCCC [Heptane] | > 100 µM | – |
| O=C(O)CCCCCC(=O)O [Heptanedioic acid] | > 90 µM | – |
| CCCCCCC#N [Heptanenitrile] | – | CC50 at 24 h (AC50 (uM) modified / 1000, Tox21_110001=Tox21_200526, viability, 1 nM T3 present, 24 h): > 90 µM |

| Structure (SMILES) | CC50 at 24 h (AC50 (uM) modified / 1000) | also measured |
| --- | --- | --- |
| CCCCCCC(=O)O [Heptanoic acid] | > 90 µM | – |
| CCCCCCC(=O)c1ccccc1 [Heptanophenone] | > 90 µM | – |
| CCCCCCCOC(C)=O [Heptyl acetate] | > 90 µM | – |
| CCCCCCCOC(=O)CCC [Heptyl butanoate] | > 90 µM | – |
| CCCCCCCN [Heptylamine] | > 90 µM | – |
| COc1ccc([C@@H]2CC(=O)c3c(O)cc(O[C@@H]4O[C@H](CO[C@@H]5O[C@@H](C)[C@H](O)[C@@H](O)[C@H]5O)[C@@H](O)[C@H](O)[C@H]4O)cc3O2)cc1O [Hesperidin] | > 20 µM | – |
| CC1(C)S[C@@H]2[C@H](N3C(=O)[C@@H](c4ccccc4)NC3(C)C)C(=O)N2[C@H]1C(=O)O [Hetacillin potassium] | > 50 µM | – |
| CC(O)C#CC(C)O (stereo not drawn) [Hex-3-yne-2,5-diol] | 50.2 µM | – |
| COCN(COC)c1nc(N(COC)COC)nc(N(COC)COC)n1 [Hexa(methoxymethyl)melamine] | > 90 µM | – |
| Brc1c(Br)c(Br)c(Br)c(Br)c1Br [Hexabromobenzene] | > 5 µM | – |
| ClC(Cl)=C(Cl)C(Cl)=C(Cl)Cl [Hexachloro-1,3-butadiene] | > 90 µM | – |
| O=C(C(Cl)(Cl)Cl)C(Cl)(Cl)Cl [Hexachloroacetone] | > 90 µM | – |
| Clc1c(Cl)c(Cl)c(Cl)c(Cl)c1Cl [Hexachlorobenzene] | > 5 µM | – |
| ClC(Cl)(Cl)C(Cl)(Cl)Cl [Hexachloroethane] | – | CC50 at 24 h (AC50 (uM) modified / 1000, Tox21_110001=Tox21_200724, viability, 1 nM T3 present, 24 h): > 90 µM |
| CCCCC(O)(Cn1cncn1)c1ccc(Cl)cc1Cl (stereo not drawn) [Hexaconazole] | 54.6 µM | – |
| CCCCCCCCCCCCCCCC [Hexadecane] | > 90 µM | – |
| CCCCCCCCCCCCCCCC(=O)OC(C)C [Hexadecanoic acid, 1-methylethyl ester] | > 50 µM | – |
| CCCCCCCCCCCCCCCC(=O)O [Hexadecanoic acid] | > 90 µM | – |
| CCCCCCCCCCCCCCCC[N+](C)(C)C [Hexadecyl trimethyl ammonium chloride] | 12.8 µM | – |
| CCCCCCCCCCCCCCCCN [Hexadecylamine] | > 50 µM | – |
| O=C(NC(=O)c1c(F)cccc1F)Nc1cc(Cl)c(OC(F)(F)C(F)F)c(Cl)c1 [Hexaflumuron] | > 90 µM | – |

| Structure (SMILES) | CC50 at 24 h (AC50 (uM) modified / 1000) | also measured |
| --- | --- | --- |
| C[N+](C)(CCCCCC[N+](C)(C)C1c2ccccc2-c2ccccc21)C1c2ccccc2-c2ccccc21 [Hexafluorenium dibromide] | > 50 µM | – |
| O=C1OC(=O)C2CCCCC12 (stereo not drawn) [Hexahydrophthalic anhydride] | > 90 µM | – |
| C[Si]1(C)O[Si](C)(C)O[Si](C)(C)O1 [Hexamethylcyclotrisiloxane] | > 90 µM | – |
| C[Si](C)(C)O[Si](C)(C)C [Hexamethyldisiloxane] | > 90 µM | – |
| C1CCCNCC1 [Hexamethyleneimine] | > 100 µM | – |
| CN(C)P(=O)(N(C)C)N(C)C [Hexamethylphosphoramide] | – | CC50 at 24 h (AC50 (uM) modified / 1000, Tox21_110001=Tox21_201837, viability, 1 nM T3 present, 24 h): > 90 µM |
| CCCCCC=O [Hexanal] | > 100 µM | – |
| CCCCCC(N)=O [Hexanamide] | > 90 µM | – |
| O=C(OCCCCCCOC(=O)c1ccccc1)c1ccccc1 [Hexane-1,6-diyl dibenzoate] | > 90 µM | – |
| NNC(=O)CCCCC(=O)NN [Hexanedihydrazide] | > 90 µM | – |
| N#CCCCCC#N [Hexanedinitrile] | > 90 µM | – |
| CC(C)CCCCCCOC(=O)CCCCC(=O)OCCCCCCC(C)C [Hexanedioic acid, diisononyl ester] | > 90 µM | – |
| O=C(O)CCCCC(=O)O [Hexanedioic acid] | > 90 µM | – |
| CCCCCC(=O)O [Hexanoic acid] | > 90 µM | – |
| CN(C)c1nc(=O)n(C2CCCCC2)c(=O)n1C [Hexazinone] | > 100 µM | – |
| CCCCC(CC)CN1CN(CC(CC)CCCC)CC(C)(N)C1 (stereo not drawn) [Hexetidine] | > 20 µM | – |
| CN1C(=O)NC(=O)C(C)(C2=CCCCC2)C1=O (stereo not drawn) [Hexobarbital] | > 50 µM | – |
| C[N+]1(C)CCN(CC(O)(c2ccccc2)C2CCCCC2)CC1 (stereo not drawn) [Hexocyclium] | > 50 µM | – |
| Oc1ccc(C(O)CNCCCCCCNCC(O)c2ccc(O)c(O)c2)cc1O (stereo not drawn) [Hexoprenaline sulfate] | 20.9 µM | – |
| CCCCCCOC(=O)C(C)CC (stereo not drawn) [Hexyl 2-methylbutanoate] | > 90 µM | – |
